SMILES | melting point
Nc1cc(C(c2cc(F)ccc2F)S(=O)(=O)c2ccc(Cl)cc2)c(Br)cn1 (stereo not drawn) | 204 to 206 °C
CC(=O)c1ccc(Oc2ccc([N+](=O)[O-])cc2C#N)cc1 | 135 to 136 °C
O=c1nc(-c2ccccc2)c2cc(Cl)sc2n1CC1CC1 | 149 to 151 °C
Nc1nc(-c2cc(OCc3ccccc3)no2)cs1 | 129 to 131 °C
CC12CCC3c4ccc(OCc5ccccc5)c([N+](=O)[O-])c4CCC3C1CCC2=O (stereo not drawn) | 198 to 199 °C
CS(=O)(=O)Nc1cc(N)c(F)cc1C#N | 235 °C
c1ccc2c(c1)CN(NC1=NCCO1)C2 | 220 to 223 °C
CN(C)c1ccc2[nH]c(=O)oc(=O)c2c1 | 258 °C
COc1cc(OC)cc(-c2cc(=O)c3ccc(OCC4CO4)cc3o2)c1 (stereo not drawn) | 181 to 182 °C
OCCN1CCN(C2=Nc3cc(F)ccc3Nc3ccsc32)CC1 | 205 to 210 °C
CC(C)=CCOc1c(-c2ccc(S(C)(=O)=O)cc2)cnn(-c2ccc(F)cc2)c1=O | 128 to 132 °C
O=c1ccc(-c2ccc(-c3ccc(=O)[nH]n3)cc2)n[nH]1 | > 250 °C
CC1Cc2ccccc2CN(CCC(N)=O)C1=O (stereo not drawn) | 168 to 169 °C
Cc1ccc(NC2CCCc3cc(C)cnc32)cc1 (stereo not drawn) | 83 to 85 °C
CCCCCC[Si]1(CCCCCC)C([Si](C)(C)C)=C(c2ccccc2)C(c2ccccc2)=C1[Si](C)(C)C | 81 °C
O=C(O)c1ccc(NC(=O)c2ccc(F)cc2)cc1 | > 300 °C
CCCCCCCCCCCCCCCCCCNC(=O)Nc1ccc(O)cc1 | 144 °C
COC(=O)c1c(S(=O)(=O)NC(=O)Nc2nc(C)nc(OC)n2)c(C)nn1C | 195 to 198 °C
Cn1ncc(C2=CC(=O)CCC2)c1S(N)(=O)=O | 160 to 165 °C

SMILES | melting point
CC1(Cc2ccc(Cl)c(Cl)c2)OC(=O)N(Cc2cc(C(F)(F)F)cc(C(F)(F)F)c2)C1=O (stereo not drawn) | 80 to 82 °C
Oc1cccnc1SCc1ccccc1 | 103 to 104 °C
CCOC(=O)c1c(N)nc(C)c(C(=O)CCCCCCCCCCBr)c1-c1cccc([N+](=O)[O-])c1 | 73 to 74 °C
CN(C)c1cccc([N+](=O)[O-])c1C(=O)NC1CCN(C(c2ccccc2)c2ccccc2)CC1 | 122 °C
CCCCc1nnc(-c2ccco2)n1Cc1ccc(NC(=O)c2ccccc2C(=O)O)cc1 | 170 to 171 °C
N#Cc1cnc2c(sc3ccccc32)c1Oc1ccc(Cl)cc1F | 174 to 175 °C
CCOc1ccc2c(c1)n(C1CCCCC1)c(=O)n2S(=O)(=O)c1ccc(NC(=O)N(CC)CC)cc1OC | 165 °C
Cc1sc(C(=O)O)cc1NC(=O)NCc1ccccc1 | 259 to 260 °C
Cc1ccc(S(=O)(=O)OC[C@H]2CCc3ccc4ccccc4c3O2)cc1 | 107 to 111 °C
O=c1c2ccccc2nc2n1CCc1c-2[nH]c2ccc(Cl)cc12 | 310 to 312 °C
CC(=O)ON=C(N)c1ccc(C(=O)N2CCN(C(=O)[C@@H]3CCCN3S(=O)(=O)c3ccc(Cl)c(COc4cccn5c(C)c(C)nc45)c3Cl)CC2)cc1 | 142 to 145 °C
CC(C)n1nc(-c2cc(I)c(N)nc2-c2ccccc2)ccc1=O | 196 to 197 °C
C#CCn1c(-c2ccccc2)nc(CC)c(CC(N)=O)c1=O | 196 to 198 °C
COCc1cnc2c(NC(=O)c3ccccc3[N+](=O)[O-])cccc2c1N1CCN(C)C1=O | 156 to 159 °C
Cc1ccc(OCn2cc(Cl)cnc2=O)cc1 | 186 °C
CCC(=O)Nc1cccc2c1C(=O)c1cccc(NC(=O)CC)c1C2=O | 321 °C
Cc1nc(COc2cc(-n3c(=O)cc(C(F)(F)F)n(C)c3=O)c(F)cc2Cl)cs1 | 145 to 147 °C
Nc1sc2c(c1C(=O)c1ccc(Cl)cc1)CCN(CCCc1ccccc1)C2 | 98 to 100 °C
CS(=O)(=O)c1ccc(C(=O)NCc2ccc3c(c2)C(=O)N(C2CCC(=O)NC2=O)C3=O)nc1 (stereo not drawn) | 276 to 278 °C

Reference: a melting point compilation (Tetko et al.; mined from patent text by program, amines drawn as free bases though some values may be those of a salt)
